Experimental data as given in patent US8946273B2, “S-Triazolyl alpha-mercapto acetanilides as inhibitors of HIV reverse transcriptase” (priority 2011, dated 2015).
Like-named read-outs stand apart in the source and are kept apart here.

Legend:
[1] = biological target: T1, wild-type HIV reverse transcriptase (Human immunodeficiency virus type 1 group M subtype B, UniProt P04585); experiment: Activity on wild type reverse transcriptase (Table 1 IC50 WT); assay type: biochemical
T1 construct: wild-type and four mutant HIV reverse transcriptases
Experimental: Using similar methods as described above, 2-[5-bromo-4-(4-cyclopropylnaphthalen-1-yl)-4H-[1,2,4]triazol-3-ylsulfanyl]-N-(2-methyl-4-sulfamoylphenyeacetamide and 2-[5-bromo-4-(4-ethylnaphthalen-1-yl)-4H-[1,2,4]triazol-3-ylsulfanyl]-N-(2-chloro-4-sulfamoylphenyl)-acetamide were synthesized, as were the N-4-carbamyl analog, 2-[5-bromo-4-(4-ethyl-naphthalen-1-yl)-4H-[1,2,4]triazol-3-ylsulfanyl]-N-(2-chloro-4-carbamoylphenyl)-acetamide and the N-4-carboxyl analog. Each of the compounds was tested against a panel of mutant HIV reverse transcriptases, including 20 of the 22 of the mutants that are found in about 2% or more of the patient samples that are resistant to the most widely used non-nucleoside HIV-RT inhibitor efavirenz ((4S)-6-chloro-4-(cyclopropylethynyl)-1,4-dihydro-4-(trifluoromethyl)-2H-3,1-benzoxazin-2-one). […] In most cases both criteria were met. […] […].
Compounds of the invention were tested against the wild-type and four mutant HIV reverse transcriptases. The results are listed in Table 1 as EC50 (nM) and IC50 (nM). In the Table, A represents <50 nM, B is between 50 and 100 nM, and C is >100 nM. ND is not determined.

wild type HIV-1 = experiment: microbe, parasite or virus in culture; assay type: cell-based, human immunodeficiency virus type 1 (HIV-1)
[2] = biological target: mutant HIV reverse transcriptases (Human immunodeficiency virus type 1, UniProt P12497, Y768C, cells depend on it); assay type: cell-based
[3] = biological target: mutant HIV reverse transcriptases (Human immunodeficiency virus type 1, UniProt P12497, Y775L, cells depend on it); assay type: cell-based
[4] = Human immunodeficiency virus 1, Hela-JC53, read-out: EC50 WT

SMILES	IC50 [1] [nM]	EC50 (wild type HIV-1; [4]) [nM]	EC50 [2] [nM]	EC50 [3] [nM]	IC50 ([1]; read-out: IC50 WT RT, wild-type (WT) RT) [nM]	EC50 (wild type HIV-1; read-out: EC50 WT, wild-type (WT) HIV-1) [nM]
CCc1ccc(-n2c(Br)nnc2SCC(=O)Nc2ccc(C(=O)NCCC#N)cc2Cl)c2ccccc12 [compound 130]	< 50	< 50	< 50	< 50	–	–
O=C(O)CCNC(=O)c1ccc(NC(=O)CSc2nnc(Br)n2-c2ccc(C3CC3)c3ccccc23)c(Cl)c1 [compound 112]	< 50	< 50	> 100	> 100	–	–
CCc1ccc(-n2c(I)nnc2SCC(=O)Nc2ccc(S(N)(=O)=O)cc2Cl)c2ccccc12 [compound 70]	< 50	< 50	< 50	< 50	–	–
CCc1ccc(-n2c(Br)nnc2SCC(=O)Nc2ccc(C(=O)O)cc2Cl)c2ccccc12 [compound 8]	< 50	< 50	< 50	< 50	–	–
CCc1ccc(-n2c(Br)nnc2SCC(=O)Nc2ccc(C(=O)NCC(C)(C)N)cc2Cl)c2ccccc12 [compound 136]	< 50	< 50	< 50	< 50	–	–
COc1ccc2cccc(-n3c(Br)nnc3SCC(=O)Nc3ccc(C(=O)O)cc3Cl)c2c1 [compound 13]	< 50	< 50	< 50	< 50	–	–
NS(=O)(=O)c1ccc(NC(=O)CSc2nnc(Br)n2-c2ccc3c4c(cccc24)CC3)c(Cl)c1 [compound 37]	< 50	< 50	< 50	< 50	–	–
CCc1ccc(-n2c(Br)nnc2SCC(=O)Nc2ccc(C(=O)N3CCCCC3CO)cc2Cl)c2ccccc12 (centres unmarked) [compound 133]	< 50	< 50	< 50	< 50	–	–
CC(C)OC(=O)CNC(=O)c1ccc(NC(=O)CSc2nnc(Br)n2-c2ccc(C3CC3)c3ccccc23)c(Cl)c1 [compound 129]	< 50	< 50	< 50	< 50	–	–
Cc1cc(C)c2ccccc2c1-n1c(SCC(=O)Nc2ccc(S(N)(=O)=O)cc2Cl)nnc1C(F)(F)F [compound 84]	–	–	< 50	< 50	< 50	< 50
CC(C)[C@H](NC(=O)c1ccc(NC(=O)CSc2nnc(Br)n2-c2ccc(C3CC3)c3ccccc23)c(Cl)c1)C(=O)O [compound 106]	50 to 100	< 50	> 100	50 to 100	–	–
CCc1ccc(-n2c(CF)nnc2SCC(=O)Nc2ccc(C(=O)O)cc2Cl)c2ccccc12 [compound 17]	< 50	< 50	< 50	> 100	–	–
CCc1ccc(-n2c(Br)nnc2SCC(=O)Nc2ccc(C(=O)NCCN(C)C)cc2Cl)c2ccccc12 [compound 119]	< 50	< 50	< 50	< 50	–	–
CCc1ccc(-n2c(Br)nnc2SCC(=O)Nc2ccc(C(=O)NCC3CCCCC3)cc2Cl)c2ccccc12 [compound 124]	< 50	< 50	< 50	< 50	–	–
Cc1ccc(-n2c(C)nnc2SCC(=O)Nc2ccc(S(N)(=O)=O)cc2Cl)c2c1CCCC2 [compound 46]	< 50	< 50	< 50	< 50	–	–
CCc1ccc(-n2c(Br)nnc2SCC(=O)Nc2ccc(C(=O)N[C@H](C(=O)OC)C(C)C)cc2Cl)c2ccccc12 [compound 102]	50 to 100	< 50	< 50	< 50	–	–
NS(=O)(=O)c1ccc(NC(=O)CSc2nnc(C(F)F)n2-c2ccc3c4c(cccc24)CC3)c(Cl)c1 [compound 36]	< 50	< 50	< 50	< 50	–	–
CCc1ccc(-n2c(SCC(=O)Nc3ccc(S(N)(=O)=O)cc3Cl)nnc2C(F)F)c2c1CCCC2 [compound 47]	< 50	< 50	< 50	< 50	–	–
CCOC(=O)CN(C)C(=O)c1ccc(NC(=O)CSc2nnc(Br)n2-c2ccc(CC)c3ccccc23)c(Cl)c1 [compound 108]	< 50	< 50	< 50	< 50	–	–
O=C(CSc1nnc(Br)n1-c1ccc(C2CC2)cc1OC(F)(F)F)Nc1ccc(S(=O)(=O)O)cc1Cl [compound 24]	< 50	> 100	> 100	> 100	–	–
